Source: patent EP0641797A1, “Cephem derivatives and antimicrobial agents containing the same” (KATAYAMA SEIYAKUSYO CO. Ltd., priority 1993, dated 1995)
Converted amounts (≈) assume the structure as drawn.

Experiments:
Assay in all cases: MIC on standard strains, standard method of Japan Society of Chemotherapy
Format in all cases: cell-based
E. coli NHIJ JC-2 = details: Escherichia coli, NHIJJC2
Description: (§1) Antimicrobial activity of the compounds of the present invention were measured using CTM (cefotiam) and FMOX (flomoxef) as control drugs in accordance with the standard method of Japan Society of Chemotherapy. Of the 25 standard strains used in this test, Staphylococcus aureus 167 and Staphylococcus aureus 195 belong to MRSA.
(§2) In these tables, drugs tested are shown by the corresponding examples in which they were synthesized.

E. cloacae Nek39 = details: Enterobacter cloacae, NEK39, E. cloacae Nek39; read-out: MIC
Description: as §1, §2

A. faecalis ATCC 3750 = details: Alcaligenes faecalis, ATCC3750, A. faecalis ATCC 3750; read-out: MIC
Description: as §1, §2

S. aureus Smith = details: Staphylococcus aureus, read-out: MIC
Description: as §1, §2

P. cepacia = details: Burkholderia cepacia, read-out: MIC
Description: as §1, §2

A. calcoaceticos T59 = details: read-out: MIC
Description: as §1, §2

S. marcescens IAM 1184 = details: Serratia marcescens, IAM1184, S. marcescens IAM 1184; read-out: MIC
Description: as §1, §2

M. luteus ATCC 9341 = details: Micrococcus luteus, ATCC9341
Description: as §1, §2

P. aeruginosa NCTC 10490 = details: Pseudomonas aeruginosa, NCTC10490, P. aeruginosa NCTC 10490; read-out: MIC
Description: as §1, §2

S. epidemidis IAM 1296 = test system: S. epidemidis IAM 1296
Description: as §1, §2

E. cloacae ATCC 13407 = details: Enterobacter cloacae, ATCC13407, E. cloacae ATCC 13407; read-out: MIC
Description: as §1, §2

K. pneuminiae No. 42 = test system: K. pneuminiae No. 42
Description: as §1, §2

E. coli CSH2(RK1) = details: Escherichia coli
Description: as §1, §2

S. aureus 167 = details: Staphylococcus aureus; S. aureus 167 (MRSA)
Description: as §1, §2

P. vulugaris OX-19 = test system: P. vulugaris OX-19
Description: as §1, §2

K. pneuminiae IFO 3317 = test system: K. pneuminiae IFO 3317
Description: as §1, §2

P. mirabilis IFO 3849 = details: Proteus mirabilis, IFO3849, P. mirabilis IFO 3849; read-out: MIC
Description: as §1, §2

C. freundii ATCC 8090 = details: Citrobacter freundii, ATCC8090, C. freundii ATCC 8090; read-out: MIC
Description: as §1, §2

S. marcescens No. 16-2 = details: Serratia marcescens, NO.162
Description: as §1, §2

S. aureus 209p JC-1 = details: Staphylococcus aureus, 209P, read-out: MIC
Description: as §1, §2

P. aeruginosa AKR17 = details: Pseudomonas aeruginosa
Description: as §1, §2

M. morganii IFO 3848 = details: Morganella morganii, IFO3848
Description: as §1, §2

B. subtilis ATCC 6633 = details: Bacillus subtilis, ATCC6633, B. subtilis ATCC 6633; read-out: MIC
Description: as §1, §2

E. coli CSH2(RE45) = details: Escherichia coli
Description: as §1, §2

S. aureus 195 = details: Staphylococcus aureus; S. aureus 195 (MRSA)
Description: as §1, §2

SMILES | MIC (E. coli NHIJ JC-2) [µg/mL] | MIC (E. cloacae Nek39) [µg/mL] | MIC (A. faecalis ATCC 3750) [µg/mL] | MIC (S. aureus Smith) [µg/mL] | MIC (P. cepacia) [µg/mL] | MIC (A. calcoaceticos T59) [µg/mL] | MIC (S. marcescens IAM 1184) [µg/mL] | MIC (M. luteus ATCC 9341) [µg/mL] | MIC (P. aeruginosa NCTC 10490) [µg/mL] | MIC (S. epidemidis IAM 1296) [µg/mL] | MIC (E. cloacae ATCC 13407) [µg/mL] | MIC (K. pneuminiae No. 42) [µg/mL] | MIC (E. coli CSH2(RK1)) [µg/mL] | MIC (S. aureus 167) [µg/mL] | MIC (P. vulugaris OX-19) [µg/mL] | MIC (K. pneuminiae IFO 3317) [µg/mL] | MIC (P. mirabilis IFO 3849) [µg/mL] | MIC (C. freundii ATCC 8090) [µg/mL] | MIC (S. marcescens No. 16-2) [µg/mL] | MIC (S. aureus 209p JC-1) [µg/mL] | other results
Nc1nc(/C(=N/O)C(=O)N[C@@H]2C(=O)N3C(C(=O)[O-])=C(C[n+]4cccc(-c5ncno5)c4)CS[C@H]23)ns1 [Ex. 5, 7β-[2-(5-amino-1,2,4-thiadiazol-3-yl)-2-syn-hydroxyiminoacetamido]-3-[3-(1,2,4-oxadiazol-5-yl)pyridinio]methyl-3-cephem-4-carboxylate] | 6.25 (≈ 11.8 µM) | 100 (≈ 189 µM) | 12.5 (≈ 23.6 µM) | 3.13 (≈ 5.91 µM) | > 100 | 12.5 (≈ 23.6 µM) | 6.25 (≈ 11.8 µM) | 0.39 (≈ 0.737 µM) | 3.13 (≈ 5.91 µM) | 0.78 (≈ 1.47 µM) | 25 (≈ 47.2 µM) | 6.25 (≈ 11.8 µM) | 12.5 (≈ 23.6 µM) | 50 (≈ 94.4 µM) | 6.25 (≈ 11.8 µM) | 3.13 (≈ 5.91 µM) | 3.13 (≈ 5.91 µM) | 6.25 (≈ 11.8 µM) | > 100 | 1.56 (≈ 2.95 µM) | MIC (P. aeruginosa AKR17): > 100 µg/mL; MIC (M. morganii IFO 3848): 3.13 µg/mL (≈ 5.91 µM); MIC (B. subtilis ATCC 6633): 0.78 µg/mL (≈ 1.47 µM); MIC (E. coli CSH2(RE45)): 6.25 µg/mL (≈ 11.8 µM); MIC (S. aureus 195): 50 µg/mL (≈ 94.4 µM)
Nc1nc(-c2cc[n+](CC3=C(C(=O)[O-])N4C(=O)[C@@H](NC(=O)/C(=N\O)c5csc(N)n5)[C@H]4SC3)cc2)n[nH]1 [Ex. 16, 7β-[2-(2-aminothiazol-4-yl)-2-syn-hydroxyiminoacetamido]-3-[4-(3-aminotriazol-5-yl)pyridinio]methyl-3-cephem-4-carboxylate] | 0.1 (≈ 0.184 µM) | > 100 | 1.56 (≈ 2.88 µM) | 0.39 (≈ 0.719 µM) | > 100 | 12.5 (≈ 23 µM) | 0.2 (≈ 0.369 µM) | 0.025 (≈ 0.0461 µM) | 1.56 (≈ 2.88 µM) | 0.1 (≈ 0.184 µM) | 12.5 (≈ 23 µM) | 0.39 (≈ 0.719 µM) | 0.78 (≈ 1.44 µM) | 3.13 (≈ 5.77 µM) | 0.1 (≈ 0.184 µM) | 0.1 (≈ 0.184 µM) | 0.2 (≈ 0.369 µM) | 0.2 (≈ 0.369 µM) | > 100 | 0.2 (≈ 0.369 µM) | MIC (P. aeruginosa AKR17): > 100 µg/mL; MIC (M. morganii IFO 3848): 0.05 µg/mL (≈ 0.0922 µM); MIC (B. subtilis ATCC 6633): 0.2 µg/mL (≈ 0.369 µM); MIC (E. coli CSH2(RE45)): 0.2 µg/mL (≈ 0.369 µM); MIC (S. aureus 195): 1.56 µg/mL (≈ 2.88 µM)
Nc1nc(/C(=N/O)C(=O)N[C@@H]2C(=O)N3C(C(=O)[O-])=C(C[n+]4ccc(-c5ncno5)cc4)CS[C@H]23)cs1 [Ex. 8, 7β-[2-(2-aminothiazol-4-yl)-2-syn-hydroxyiminoacetamido]-3-[4-(1,2,4-oxadiazol-5-yl)pyridinio]methyl-3-cephem-4-carboxylate] | 0.39 (≈ 0.738 µM) | 50 (≈ 94.6 µM) | 0.78 (≈ 1.48 µM) | 0.39 (≈ 0.738 µM) | > 100 | 12.5 (≈ 23.7 µM) | 0.39 (≈ 0.738 µM) | 0.05 (≈ 0.0946 µM) | 1.56 (≈ 2.95 µM) | 0.1 (≈ 0.189 µM) | 3.13 (≈ 5.92 µM) | 0.78 (≈ 1.48 µM) | 1.56 (≈ 2.95 µM) | 12.5 (≈ 23.7 µM) | 0.2 (≈ 0.378 µM) | 0.2 (≈ 0.378 µM) | 0.2 (≈ 0.378 µM) | 0.2 (≈ 0.378 µM) | 100 (≈ 189 µM) | 0.39 (≈ 0.738 µM) | MIC (P. aeruginosa AKR17): > 100 µg/mL; MIC (M. morganii IFO 3848): 0.05 µg/mL (≈ 0.0946 µM); MIC (B. subtilis ATCC 6633): 0.78 µg/mL (≈ 1.48 µM); MIC (E. coli CSH2(RE45)): 0.39 µg/mL (≈ 0.738 µM); MIC (S. aureus 195): 3.13 µg/mL (≈ 5.92 µM)
Nc1nnc(-c2cc[n+](CC3=C(C(=O)[O-])N4C(=O)[C@@H](NC(=O)/C(=N\O)c5csc(N)n5)[C@H]4SC3)cc2)o1 [Ex. 15, 7β-[2-(2-aminothiazol-4-yl)-2-syn-hydroxyiminoacetamido]-3-[4-(2-amino-1,3,4-oxadiazol-5-yl)pyridinio]methyl-3-cephem-4-carboxylate] | 0.2 (≈ 0.368 µM) | 50 (≈ 92 µM) | 1.56 (≈ 2.87 µM) | 0.39 (≈ 0.718 µM) | > 100 | 12.5 (≈ 23 µM) | 0.2 (≈ 0.368 µM) | 0.05 (≈ 0.092 µM) | 1.56 (≈ 2.87 µM) | 0.1 (≈ 0.184 µM) | 6.25 (≈ 11.5 µM) | 0.39 (≈ 0.718 µM) | 0.78 (≈ 1.44 µM) | 6.25 (≈ 11.5 µM) | 0.2 (≈ 0.368 µM) | 0.2 (≈ 0.368 µM) | 0.2 (≈ 0.368 µM) | 0.2 (≈ 0.368 µM) | 100 (≈ 184 µM) | 0.39 (≈ 0.718 µM) | MIC (P. aeruginosa AKR17): > 100 µg/mL; MIC (M. morganii IFO 3848): 0.1 µg/mL (≈ 0.184 µM); MIC (B. subtilis ATCC 6633): 0.39 µg/mL (≈ 0.718 µM); MIC (E. coli CSH2(RE45)): 0.39 µg/mL (≈ 0.718 µM); MIC (S. aureus 195): 6.25 µg/mL (≈ 11.5 µM)
